PubChem BioAssay AID687022 (Broad Institute, 2013)
The source made the active and inactive calls.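 The calls were made as follows: active = Fitted curve of melting temperature shift crosses the 1.0 threshold at or below the sample's highest valid tested concentration; inconclusive = Flat fit with activity 30 to 70, or invalid fit; inactive = Opposite direction, flat within 30, or no crossing.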

These compounds were tested against Fibroblast growth factor 22 (Homo sapiens) (UniProt Q9HCT0) (assay: binders of human FGF22 protein, dose response, FGF22 synaptogenesis inhibitor project, biophysical, thermal shift, cherry-pick (AID 687022)). Settings: recombinant FGF22 thermal shift, SYPRO orange melting.
Fibroblast growth factor 22 (Homo sapiens), sequence (Q9HCT0 whole entry, looked up): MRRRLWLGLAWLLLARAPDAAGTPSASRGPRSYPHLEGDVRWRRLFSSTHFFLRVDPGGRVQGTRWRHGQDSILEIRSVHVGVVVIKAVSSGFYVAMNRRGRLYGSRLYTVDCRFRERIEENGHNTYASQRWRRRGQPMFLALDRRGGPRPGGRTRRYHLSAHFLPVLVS

Compound | AbsAC1 (concentration giving Tm-shift threshold 1.0)
O=C(Nc1ccc(C(=O)O)cc1)Nc1ccc([N+](=O)[O-])cc1 | 5.57 µM
CCOc1ccc(N2C(=O)C(CC(=O)Nc3ccc(F)cc3)N(Cc3ccccn3)C2=S)cc1 (stereo not drawn) | 9.4 µM
O=[N+]([O-])c1ccc(Nc2cccc(F)c2)nc1 | 3.78 µM
COc1ccc2nc(NC(=O)CCc3cc(OC)c(OC)c(OC)c3)sc2c1 | 19.3 µM
COc1cc(NC(=O)c2cnc(N)s2)cc(C(=O)Nc2cccc(C(F)(F)F)c2)c1 | 2.42 µM
COC12CC(=O)C(C(C)=O)=C(O)C1(C)c1c(O)c(C)c(O)c(C(C)=O)c1O2 (stereo not drawn) | 6.77 µM
O=C(CNC(=O)c1ccc(S(=O)(=O)N2CCCC2)cc1)N/N=C/c1ccc(F)cc1 | 16.5 µM
COc1ccc(-c2ccc([C@@H]3[C@@H](CO)N4CCCCN(C(=O)c5ccc(F)cc5)C[C@@H]34)cc2)cc1 | 3.54 µM
O=C1C(Cl)=C(NS(=O)(=O)c2ccc([N+](=O)[O-])cc2)C(=O)c2ccccc21 | 7.4 µM
O=C(C[C@H]1CC[C@H]2[C@@H](COC[C@@H](O)CN2S(=O)(=O)c2cccc(F)c2)O1)Nc1ccc(-c2ccccc2)cc1 | > 38 µM (inactive)
CC1(C)CCC(=O)N2CC[C@H]3C[C@H](OC(=O)Nc4ccccc4)C[C@@H]1[C@H]32 | 12 µM
O=C(Nc1cccc(C(F)(F)F)c1)c1cccc(NS(=O)(=O)c2ccc(O)c(C(=O)O)c2)c1 | 2.6 µM
COc1nsnc1NS(=O)(=O)c1ccc(NC(=S)NC(=O)c2cccnc2)cc1 | 8.95 µM
Brc1ccccc1/C=N/Nc1ccccn1 | 9.78 µM
Cc1noc(NC(=O)c2cccc(Cl)c2Cl)c1C#N | 32.7 µM
O=C(Nc1cc(Cl)cc(Cl)c1)N[C@@H]1CC[C@@H](CCNS(=O)(=O)c2cccc(F)c2)O[C@H]1CO | 5.67 µM
C[C@@H]1CN([C@H](C)CO)S(=O)(=O)c2ccc(-c3ccc(F)cc3)cc2O[C@@H]1CN(C)C(=O)Nc1ccccc1F | 22.1 µM

Compound | AbsAC1 (concentration giving Tm-shift threshold 1.0)
O=[N+]([O-])c1cc(CS(=O)(=O)Oc2ccc(Cl)cc2)c(O)c([N+](=O)[O-])c1 | > 5 µM (inactive)
S=c1[nH]c2cc3ccccc3cc2[nH]1 | 10.7 µM
N#CC(C#N)=C1NC(N)=C(C#N)C(c2ccccc2)=C1C#N | 4.02 µM
Cc1ccc(S(=O)(=O)NCCC(=O)Nc2ccc(C)c(Cl)c2)cc1C | 4.71 µM
COc1ccc2cc(CCNC(=O)c3cc4ccccc4o3)c(=O)[nH]c2c1 | 11.3 µM
O=C(Nc1ccc(S(=O)(=O)N2CCOCC2)cc1)c1ccc(F)cc1 | 12.7 µM
C[C@@H]1CN([C@@H](C)CO)S(=O)(=O)c2ccc(C3=CCCC3)cc2O[C@@H]1CN(C)C(=O)Nc1ccc2c(c1)OCO2 | 20.2 µM
O=C(Nc1ccc(O)cc1)c1cccc(Oc2ccc([N+](=O)[O-])cc2)c1 | 4.32 µM
CO[C@@H](CN(C)S(=O)(=O)c1cccc(Cl)c1)[C@@H](C)CN([C@H](C)CO)S(=O)(=O)c1cccc(Cl)c1 | 10.3 µM
COc1ccc(S(=O)(=O)Nc2ccc(NC(C)=O)cc2)cc1Cl | 26.6 µM
COc1cccc(NC(=O)N(C)C[C@@H]2Oc3cc(-c4ccccc4F)ccc3S(=O)(=O)N([C@H](C)CO)C[C@@H]2C)c1 | 2.04 µM
NS(=O)(=O)c1ccc(NC(=O)Nc2cccc(Cl)c2)cc1 | 16.8 µM
O=C(Nc1ccc(Cl)cc1)N[C@H]1CC[C@H](CCNC(=O)c2cc(Cl)cc(Cl)c2)O[C@@H]1CO | 34.9 µM
CN(NC1OC(=O)c2ccccc21)c1ncc(C(F)(F)F)cc1Cl (stereo not drawn) | 29.3 µM
O=C(O)c1cccc(NS(=O)(=O)c2ccc(Cl)c(C(=O)Nc3cccc([N+](=O)[O-])c3)c2)c1 | 11.9 µM
CO[C@H](CN(C)S(=O)(=O)c1cccc(Cl)c1)[C@H](C)CN([C@H](C)CO)S(=O)(=O)c1cccc(Cl)c1 | 14.1 µM

Further lines, results first:

AbsAC1 (concentration giving Tm-shift threshold 1.0) | Compound
3.74 µM | O=C(COc1ccc([N+](=O)[O-])cc1)Nc1cccc(C(=O)Nc2ccccc2C(=O)O)c1
2.86 µM | Cc1[nH]c2ccc(C(=O)OCC(=O)Nc3cccc(S(N)(=O)=O)c3)cc2c1C
5.43 µM | COC(=O)C[C@H]1CC[C@@H]2[C@@H](COc3ccc(NC(=O)Nc4ccc(C#N)cc4)cc3C(=O)N2C)O1
0.867 µM | CN(Cc1c(C(=O)N/N=C/c2ccc(O)cc2)nnn1-c1nonc1N)c1ccccc1
6.1 µM | COc1cc(/C=N/NC(=O)c2[nH]nc3c2CCc2ccccc2-3)ccc1O
4.93 µM | O=C(CN1C(=O)NC(Cc2c[nH]c3ccccc23)C1=O)Nc1ccc(Br)cc1F (stereo not drawn)
4.5 µM | O=C(O)Cc1ccc(NC(=O)c2ccc(Cl)c(Cl)c2)cc1
39.8 µM | COc1ccc(NC(=O)N(C)C[C@@H]2Oc3ccc(NC(=O)Cc4ccccc4)cc3C(=O)N([C@H](C)CO)C[C@H]2C)cc1
3.02 µM | CCOC(=O)c1c(N)sc(C(=O)Nc2ccccc2)c1C
3.38 µM | COc1cccc(S(=O)(=O)N2C[C@@H](O)COC[C@@H]3O[C@@H](CC(=O)Nc4ccccc4)CC[C@H]32)c1
14 µM | O=C(N/N=C/c1c[nH]c2ccccc12)C1CC1c1ccccc1 (stereo not drawn)
2.38 µM | Cn1c(=O)c2c(-c3ccccc3)n(-c3cc(Cl)c([N+](=O)[O-])cc3O)cc2n(C)c1=O
> 19.5 µM (inactive) | COc1ccc(Cc2nnc(NS(=O)(=O)c3ccccc3)s2)cc1
31.6 µM | COc1ccc(/C(O)=C/C(=O)C(=O)NNC(=O)c2ccccc2)cc1
17.9 µM | O=C(N/N=C/c1ccsc1)c1c[nH]c2ccccc12
7.91 µM | CC(=O)Nc1ccc(/C(C)=N/Nc2nc(Nc3ccccc3)nc(N3CCOCC3)n2)cc1
16.1 µM | O=C(Nc1nc(-c2ccccn2)cs1)c1cc2ccccc2o1
6.42 µM | CC(C)CC(=O)Nc1ccc(C(=O)CN2C(=O)NC3(CCOc4ccccc43)C2=O)cc1 (stereo not drawn)
3.88 µM | O=[N+]([O-])c1ccc2nc(-c3ccccc3)[nH]c2c1
13.9 µM | NC(=O)c1ccsc1NC(=O)COC(=O)Cc1c[nH]c2ccccc12
4.05 µM | CCN1C(=O)C(CC(=O)Nc2ccc(OC)cc2)N(Cc2ccc3c(c2)OCO3)C1=S (stereo not drawn)
3.02 µM | CCN1C/C(=C/c2cccs2)c2nc3ccccc3c(C(=O)O)c2C1
18.9 µM | O=C(CN(Cc1ccccc1)S(=O)(=O)c1ccccc1)N/N=C/c1ccccc1C(=O)O
16.7 µM | COC(=O)c1cc(OC)c(OC)cc1NC(=O)c1ccccc1C
8.19 µM | Cc1nn(-c2ccccc2)c(C)c1/C=N/NC(=O)c1cc(-c2cccs2)[nH]n1
